From patent US11230526B1, “Cylcoalkenyl derivatives useful as agonists of the GPR120 and/or GPR40 receptors” (Janssen Pharmaceutica NV, priority 2018, dated 2022)

Assays:
Format in all cases: cell-based
[1] = biological target: T1, Human GPR120 short form (Homo sapiens, UniProt Q5NUL3); assay: Human GPR120 calcium flux assay, Procedure Calcium A (2500 cells/well)
T1 construct: expressed in transfected cells
T1 sequence (Q5NUL3 1-361): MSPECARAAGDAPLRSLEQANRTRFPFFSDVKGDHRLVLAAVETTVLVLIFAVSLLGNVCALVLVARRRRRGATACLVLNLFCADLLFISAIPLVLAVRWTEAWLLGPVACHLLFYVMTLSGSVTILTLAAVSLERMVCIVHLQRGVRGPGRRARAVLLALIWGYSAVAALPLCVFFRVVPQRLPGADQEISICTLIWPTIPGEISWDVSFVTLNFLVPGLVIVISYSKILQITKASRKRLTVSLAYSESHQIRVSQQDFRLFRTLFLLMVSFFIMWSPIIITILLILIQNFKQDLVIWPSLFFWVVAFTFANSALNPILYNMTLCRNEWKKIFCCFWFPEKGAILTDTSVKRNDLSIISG
From the text: Human GPR120 in Calcium Flux Assay
This in vitro assay serves to assess test compound agonist activity against the short splice variant (SVS with Accession number NM_001195755.1 confirmed by sequencing data) of the GPR120 receptor. The Human Short splice variant #2 (NM_001195755.1) is missing an in-frame coding exon compared to variant 1 (the Human Long splice variant NM_181745.3), resulting in a shorter isoform (GPR120-S) lacking a 16 aa protein segment compared to isoform GPR120-L. The assay platform utilizes HEK-293 cells stably transfected to express the Human GPR120 short form. These cells are first loaded with the Ca^+2 sensitive dye, Fluo-4 NW. Upon stimulation, intracellular released Ca^+2 can bind to the dye and alter its fluorescence intensity. This increase in fluorescence signal, and thus the flux in intracellular [Ca^2+], is detected and quantitated by fluorescence imaging using a FLIPR reader. The effect of the agonist is measured as a function of concentration and used to calculate an EC50 based upon a response curve.
In this procedure 2500 cells/well were employed.
A Human GPR120 clone (Genbank accession number NM_001195755.1) was placed into the pcDNA3.1 mammalian expression vector carrying the neomycin resistance gene. A stable mammalian cell was generated by placing the above clone into a HEK293 background. Clonal cells responding to long chain fatty acids had expression levels of GPR120 confirmed by RT-qPCR. Human HEK-GPR120 cells were cultured in Dulbecco's Modified Eagle's Medium (DMEM)/F12 medium supplemented with 10% fetal bovine serum (FBS), 1% L-Glutamine and 1% penicillin/streptomycin and 0.5 mg/ml G-418. Cells were split 2 times a week to keep the cells in the log-phase growth.
In preparation for the assay, HEK cells stably transfected with Human GPR120 (2.5K cells per well in 25 uL growth medium) were seeded into 384-well plates and then incubated overnight (37° C., 5% CO2). The next day, the media was changed to 20 μL assay buffer and the cell starved for 1 h at 37° C. The dye loading solution (2× dye) was prepared using 10 mL assay buffer, 100 μL of 250 mM probenecid, 1 bottle of Component A, and 20 μl of dye in DMSO. Twenty μL of the 2× dye loading buffer was then added to each well. The plates were incubated at 37° C. for 30 min, then at room temperature for an additional 15 minutes, before performing the assay on FLIPR.
The assay was performed on a FLIPR plate reader using the following parameters. Baseline was read for 10 seconds at 1 sec intervals. The program was set to transfer 10 μL of ligand from compound plate to cell plate after baseline reading. Aspiration was executed at: 10 μL/sec speed, 4.6 μL height, Dispensing was executed at: 30 μL/sec speed, 45 μL height. After compound addition, each well was read for 300 sec, with measurements collected at 1 sec intervals.
The kinetic data from the FLIPR was based upon a 5 minute window for data collection. The fluorescence of each sample well was used for individual calculations of a normalized RFU value, which was defined as maximum response minus the minimum response. The normalized fluorescence reading (RFU) was calculated as follows: RFU=Fmax−Fmin
The Fitting Equation was: Y=Bottom+(Top-Bottom)/(1+10^((Log EC50−X)*HillSlope)), where X is the log of the concentration and Y is the response.

[2] = biological target: T2, human GPR40 (Homo sapiens, UniProt O14842); assay: GPR40 calcium flux assay, human GPR40; details: HEK293 cells stably expressing GPR40; table does not say human or rat
T2 construct: expressed in transfected cells
In short: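 Cells preincubated 1 h at 37° C. in HBSS, 20 mM HEPES, 0.1% BSA, then Fluo 8 calcium dye 30 min at 37° C. and 15 min at room temperature.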

[3] = biological target: T1, Human GPR120 short form; assay: Human GPR120 calcium flux assay, Procedure Calcium B (4200 cells/well)
In short: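 HEK293 cells stably expressing human GPR120 (NM_001195755.1), 4200 cells/well, starved 1 h and loaded with Fluo-4 NW plus probenecid. Ligand-evoked calcium flux read on FLIPR for 300 s after a 10 s baseline. RFU = Fmax−Fmin; EC50 from four-parameter concentration-response fit.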

T2 sequence (O14842 whole entry): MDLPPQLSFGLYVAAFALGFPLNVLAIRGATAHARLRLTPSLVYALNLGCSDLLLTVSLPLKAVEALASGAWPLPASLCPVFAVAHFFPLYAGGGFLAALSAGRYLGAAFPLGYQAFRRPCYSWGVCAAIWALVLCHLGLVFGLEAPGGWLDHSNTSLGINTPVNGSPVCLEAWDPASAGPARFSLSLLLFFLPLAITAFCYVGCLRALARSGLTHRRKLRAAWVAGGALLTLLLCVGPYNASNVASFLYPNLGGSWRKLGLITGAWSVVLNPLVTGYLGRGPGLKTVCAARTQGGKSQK

Structure (SMILES) | EC50 [1] [nM] | EC50 [2] [nM] | EC50 [3] [nM]
O=C(O)CCc1ccc(OCC2=C(c3ccccc3)CCC2)cc1 [Compound 19, 3-(4-((2-phenylcyclopent-1-en-1-yl)methoxy)phenyl)Propanoic Acid] | 1930 | > 5000 | 603
Cc1c(CCC(=O)O)ccc(OCC2=C(c3ccc(Cl)cc3)CCC2(O)C(F)(F)F)c1C (centres unmarked) [Compound 69, 3-[4-[[2-(4-chlorophenyl)-5-hydroxy-5-(trifluoromethyl)cyclopenten-1-yl]methoxy]-2,3-dimethyl-phenyl]Propanoic Acid] | > 5000 | > 5000 | 2460
Cc1ccc(C2=C(COc3ccc(CCC(=O)O)c(F)c3F)CCC2)cc1[N+](=O)[O-] [Compound 92, 3-(2,3-difluoro-4-((2-(4-methyl-3-nitrophenyl)cyclopent-1-en-1-yl)methoxy)phenyl)Propanoic Acid] | 1260 | > 5000 | 373
Cc1c(CCC(=O)O)ccc(OCC2=C(c3cc(Cl)cc(Cl)c3)CCC2)c1C [Compound 112, 3-[4-[[2-(3,5-dichlorophenyl)cyclopenten-1-yl]methoxy]-2,3-dimethyl-phenyl]Propanoic Acid′] | 2460 | > 5000 | 3070
Cc1c(CCC(=O)O)ccc(OCC2=C(c3cccc(N(C)C)c3)CCC2)c1C [Compound 114, 3-[4-[[2-[3-(dimethylamino)phenyl]cyclopenten-1-yl]methoxy]-2,3-dimethyl-phenyl]Propanoic Acid] | > 5000 | > 5000 | –
Cc1ccc(C2=C(COc3ccc(CCC(=O)O)c(C)c3C)CCC2)cc1[N+](=O)[O-] [Compound 115, 3-(2,3-dimethyl-4-((2-(4-methyl-3-nitrophenyl)cyclopent-1-en-1-yl)methoxy)phenyl)Propanoic Acid] | 1120 | > 5000 | 852
Cc1cc(OCC2=C(c3ccc(Cl)cc3)CCC2)cc(C)c1CCC(=O)O [Compound 119, 3-(4-((2-(4-chlorophenyl)cyclopent-1-en-1-yl)methoxy)-2,6-dimethylphenyl)Propanoic Acid] | 895 | > 5000 | 327
Cc1c(CCCC(=O)O)ccc(OCC2=C(c3ccc(Cl)cc3)CCC2)c1C [Compound 127, 4-[4-[[2-(4-chlorophenyl)cyclopenten-1-yl]methoxy]-2,3-dimethyl-phenyl]Butanoic Acid] | 2780 | > 5000 | 668
CCCc1ccc(C2=C(COc3ccc(CCC(=O)O)c(C)c3C)CCC2)cc1 [Compound 140, 3-[2,3-dimethyl-4-[[2-(4-propylphenyl)cyclopenten-1-yl]methoxy]phenyl]Propanoic Acid] | > 5000 | > 5000 | –
Cc1c(CCC(=O)O)ccc(OCC2=C(c3ccc(C#N)cc3)CCC2)c1C [Compound 146, 3-[4-[[2-(4-cyanophenyl)cyclopenten-1-yl]methoxy]-2,3-dimethyl-phenyl]Propanoic Acid] | 1560 | > 5000 | 208
CCOc1ccc(C2=C(COc3ccc(CCC(=O)O)c(C)c3C)CCC2)cc1 [Compound 151, 3-[4-[[2-(4-ethoxyphenyl)cyclopenten-1-yl]methoxy]-2,3-dimethyl-phenyl]Propanoic Acid] | > 5000 | > 5000 | –
Cc1c(CCC(=O)O)ccc(OCC2=C(c3ccc(Cl)c(F)c3)CCC2)c1C [Compound 157, 3-(4-((2-(4-chloro-3-fluorophenyl)cyclopent-1-en-1-yl)methoxy)-2,3-dimethylphenyl)Propanoic Acid] | 97 | > 5000 | 67
CCCc1ccc(C2=C(COc3ccc(CCC(=O)O)c(C)c3C)CCCC2)cc1 [Compound 463, 3-[2,3-dimethyl-4-[[2-(4-propylphenyl)cyclohexen-1-yl]methoxy]phenyl]Propanoic Acid] | 4810 | > 5000 | 1620
Cc1c(CCC(=O)O)ccc(OCC2=C(c3ccncc3)CCCC2)c1C [Compound 465, 3-[2,3-dimethyl-4-[[2-(4-pyridyl)cyclohexen-1-yl]methoxy]phenyl]Propanoic Acid] | 2170 | > 5000 | 1450

Other lines, results leading:

EC50 [1] [nM] | EC50 [2] [nM] | EC50 [3] [nM] | Structure (SMILES)
4480 | > 5000 | 2270 | Cc1c(CCC(=O)O)ccc(OCC2=C(c3ncccn3)CCCC2)c1C [Compound 475, 3-[2,3-dimethyl-4-[(2-pyrimidin-2-ylcyclohexen-1-yl)methoxy]phenyl]Propanoic Acid]
1330 | > 5000 | 475 | Cc1c(CCC(=O)O)ccc(OCC2=C(c3ccc(I)cc3)CCCC2)c1C [Compound 476, 3-[4-[[2-(4-iodophenyl)cyclohexen-1-yl]methoxy]-2,3-dimethyl-phenyl]Propanoic Acid]
1180 | > 5000 | 256 | Cc1ccc(C2=C(COc3ccc(CCC(=O)O)cc3C)CCCC2)cn1 [Compound 477, 3-[3-methyl-4-[[2-(6-methyl-3-pyridyl)cyclohexen-1-yl]methoxy]phenyl]Propanoic Acid]
2190 | > 5000 | 743 | Cc1c(CCC(=O)O)ccc(OCC2=C(c3ccccn3)CCCC2)c1C [Compound 490, 3-[2,3-dimethyl-4-[[2-(2-pyridyl)cyclohexen-1-yl]methoxy]phenyl]Propanoic Acid]
532 | > 5000 | 97 | O=C(O)CCc1cc(F)c(OCC2=C(c3ccc(Cl)cc3)CCC(F)(F)C2)c(F)c1 [Compound 491, 3-[4-[[2-(4-chlorophenyl)-5,5-difluoro-cyclohexen-1-yl]methoxy]-3,5-difluoro-phenyl]Propanoic Acid]
> 5000 | > 5000 | – | CC(=O)Nc1ccc(C2=C(COc3ccc(CCC(=O)O)c(C)c3C)CCCC2)cc1 [Compound 495, 3-[4-[[2-(4-acetamidophenyl)cyclohexen-1-yl]methoxy]-2,3-dimethyl-phenyl]Propanoic Acid]
> 5000 | > 10000 | – | Cc1c(CCC(=O)O)ccc(OCC2=C(c3ccc([S+](C)[O-])cc3)CCCC2)c1C (centres unmarked) [Compound 507, 3-[2,3-dimethyl-4-[[2-(4-methylsulfinylphenyl)cyclohexen-1-yl]methoxy]phenyl]Propanoic Acid]
> 5000 | > 5000 | – | Cc1c(CCC(=O)O)ccc(OCC2=C(c3ccc(S(C)(=O)=O)cc3)CCCC2)c1C [Compound 515, 3-[2,3-dimethyl-4-[[2-(4-methylsulfonylphenyl)cyclohexen-1-yl]methoxy]phenyl]Propanoic Acid]
> 5000 | > 5000 | – | O=C(O)CCc1ccc(OCC2=C(c3ccc(Cl)cc3)CCCC2)cc1 [Compound 517, 3-[4-[[2-(4-chlorophenyl)cyclohexen-1-yl]methoxy]phenyl]Propanoic Acid]
